Laboratory results reported in the kinase profiling compilation of Christmann-Franck et al. (2016).

Key:
Assay in all cases: radiometric filter-binding kinase assay
PIM2 (human) = PIM2 (human) (UniProt Q9P1W9); conditions: compound 100.0 µM; ATP 5 µM
RPS6KA1 KD1 KD2 (human) = RPS6KA1 KD1 KD2 (human) (UniProt Q15418); conditions: compound 100.0 µM; ATP 50 µM
TBK1 (human) = TBK1 (human) (UniProt Q9UHD2); conditions: compound 100.0 µM; ATP 50 µM
MAPKAPK2 (human) = MAPKAPK2 (human) (UniProt P49137); conditions: compound 100.0 µM; ATP 20 µM
CDK2 CCNA2 (human) = CDK2 CCNA2 (human) (UniProt P20248+P24941); conditions: compound 100.0 µM; ATP 20 µM
MINK1 (human) = MINK1 (human) (UniProt Q8N4C8); conditions: compound 100.0 µM; ATP 50 µM
[1] = test system: RPS6KB1 (human), P23443 [T412E]; conditions: compound 100.0 µM; ATP 20 µM
MARK1 (human) = MARK1 (human) (UniProt Q9P0L2); conditions: compound 100.0 µM; ATP 20 µM
MAPK13 (human) = MAPK13 (human) (UniProt O15264); conditions: compound 100.0 µM; ATP 5 µM
ABL1 (human) = ABL1 (human) (UniProt P00519); conditions: compound 100.0 µM; ATP 5 µM
MAP3K11 (human) = MAP3K11 (human) (UniProt Q16584); conditions: compound 100.0 µM; ATP 20 µM
PIM3 (human) = PIM3 (human) (UniProt Q86V86); conditions: compound 100.0 µM; ATP 20 µM
PHKG1 (human) = PHKG1 (human) (UniProt Q16816); conditions: compound 100.0 µM; ATP 50 µM
BRSK2 (human) = BRSK2 (human) (UniProt Q8IWQ3); conditions: compound 100.0 µM; ATP 50 µM
MKNK2 (human) = MKNK2 (human) (UniProt Q9HBH9); conditions: compound 100.0 µM; ATP 50 µM
EPHA4 (human) = EPHA4 (human) (UniProt P54764); conditions: compound 100.0 µM; ATP 50 µM
NEK2 (human) = NEK2 (human) (UniProt P51955); conditions: compound 100.0 µM; ATP 50 µM
PAK6 (human) = PAK6 (human) (UniProt Q9NQU5); conditions: compound 100.0 µM; ATP 20 µM
FLT1 (human) = FLT1 (human) (UniProt P17948); conditions: compound 100.0 µM; ATP 20 µM
CaMK1 (human) = CaMK1 (human) (UniProt Q14012); conditions: compound 100.0 µM; ATP 50 µM
TEK (human) = TEK (human) (UniProt Q02763); conditions: compound 100.0 µM; ATP 20 µM
MAPKAPK3 (human) = MAPKAPK3 (human) (UniProt Q16644); conditions: compound 100.0 µM; ATP 20 µM
ROCK2 (rat) = conditions: compound 100.0 µM; ATP 20 µM; accession and sequence are those of the human protein
CSNK2A1 (human) = CSNK2A1 (human) (UniProt P68400); conditions: compound 100.0 µM; ATP 5 µM
MELK (human) = MELK (human) (UniProt Q14680); conditions: compound 100.0 µM; ATP 50 µM
PTK6 (human) = PTK6 (human) (UniProt Q13882); conditions: compound 100.0 µM; ATP 20 µM
PIM1 (human) = PIM1 (human) (UniProt P11309); conditions: compound 100.0 µM; ATP 20 µM
[2] = test system: AKT2 (human), P31751 [S474D]; conditions: compound 100.0 µM; ATP 50 µM
DYRK3 (human) = DYRK3 (human) (UniProt O43781); conditions: compound 100.0 µM; ATP 5 µM
MST4 (human) = MST4 (human) (UniProt Q9P289); conditions: compound 100.0 µM; ATP 20 µM
EPHB4 (human) = EPHB4 (human) (UniProt P54760); conditions: compound 100.0 µM; ATP 5 µM
EEF2K (human) = EEF2K (human) (UniProt O00418); conditions: compound 100.0 µM; ATP 5 µM
PRKCA (human) = PRKCA (human) (UniProt P17252); conditions: compound 100.0 µM; ATP 20 µM
NEK6 (human) = NEK6 (human) (UniProt Q9HC98); conditions: compound 100.0 µM; ATP 50 µM
MAPK8 (human) = MAPK8 (human) (UniProt P45983); conditions: compound 100.0 µM; ATP 20 µM
MYLK (human) = MYLK (human) (UniProt Q15746); conditions: compound 100.0 µM; ATP 50 µM
STK33 (human) = STK33 (human) (UniProt Q9BYT3); conditions: compound 100.0 µM; ATP 50 µM
AURKA (human) = AURKA (human) (UniProt O14965); conditions: compound 100.0 µM; ATP 5 µM
STK16 (human) = STK16 (human) (UniProt O75716); conditions: compound 100.0 µM; ATP 50 µM
ERBB4 (human) = ERBB4 (human) (UniProt Q15303); conditions: compound 100.0 µM; ATP 5 µM
Sequence of ERBB4 (human) (Q15303 whole entry, looked up): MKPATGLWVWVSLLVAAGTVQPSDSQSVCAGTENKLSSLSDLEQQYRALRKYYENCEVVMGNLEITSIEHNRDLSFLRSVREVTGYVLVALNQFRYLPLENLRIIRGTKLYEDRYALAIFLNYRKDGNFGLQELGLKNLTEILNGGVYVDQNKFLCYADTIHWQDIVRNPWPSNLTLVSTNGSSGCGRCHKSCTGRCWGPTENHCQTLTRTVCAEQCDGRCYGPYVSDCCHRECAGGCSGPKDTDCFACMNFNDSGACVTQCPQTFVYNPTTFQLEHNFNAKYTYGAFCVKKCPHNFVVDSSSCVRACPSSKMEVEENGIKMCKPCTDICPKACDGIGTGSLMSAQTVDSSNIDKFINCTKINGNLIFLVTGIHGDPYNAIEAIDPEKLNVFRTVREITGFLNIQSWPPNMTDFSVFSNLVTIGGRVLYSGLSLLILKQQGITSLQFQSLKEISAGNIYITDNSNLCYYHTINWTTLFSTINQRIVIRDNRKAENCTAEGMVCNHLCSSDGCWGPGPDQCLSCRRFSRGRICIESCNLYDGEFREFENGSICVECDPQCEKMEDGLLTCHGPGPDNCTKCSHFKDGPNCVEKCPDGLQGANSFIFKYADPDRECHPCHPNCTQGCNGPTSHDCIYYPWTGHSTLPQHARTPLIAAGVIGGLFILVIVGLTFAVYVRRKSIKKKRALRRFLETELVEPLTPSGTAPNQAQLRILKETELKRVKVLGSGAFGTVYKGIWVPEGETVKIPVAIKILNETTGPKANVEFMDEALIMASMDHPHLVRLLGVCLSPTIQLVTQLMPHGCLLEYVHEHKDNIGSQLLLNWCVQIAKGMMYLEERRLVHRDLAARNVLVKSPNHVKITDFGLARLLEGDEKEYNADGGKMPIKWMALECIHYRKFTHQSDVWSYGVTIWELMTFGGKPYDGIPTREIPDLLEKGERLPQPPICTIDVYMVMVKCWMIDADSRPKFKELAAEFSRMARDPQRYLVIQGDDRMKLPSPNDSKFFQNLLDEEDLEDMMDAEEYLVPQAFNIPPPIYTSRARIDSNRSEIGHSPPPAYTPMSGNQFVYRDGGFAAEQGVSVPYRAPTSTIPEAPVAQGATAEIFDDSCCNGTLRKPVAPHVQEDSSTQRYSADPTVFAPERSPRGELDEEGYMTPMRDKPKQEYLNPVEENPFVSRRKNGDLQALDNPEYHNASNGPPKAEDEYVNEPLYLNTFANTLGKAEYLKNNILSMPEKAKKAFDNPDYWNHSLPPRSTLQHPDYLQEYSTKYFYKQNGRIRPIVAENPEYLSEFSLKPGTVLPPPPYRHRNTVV

Sequence of MAPK8 (human) (P45983 whole entry, looked up): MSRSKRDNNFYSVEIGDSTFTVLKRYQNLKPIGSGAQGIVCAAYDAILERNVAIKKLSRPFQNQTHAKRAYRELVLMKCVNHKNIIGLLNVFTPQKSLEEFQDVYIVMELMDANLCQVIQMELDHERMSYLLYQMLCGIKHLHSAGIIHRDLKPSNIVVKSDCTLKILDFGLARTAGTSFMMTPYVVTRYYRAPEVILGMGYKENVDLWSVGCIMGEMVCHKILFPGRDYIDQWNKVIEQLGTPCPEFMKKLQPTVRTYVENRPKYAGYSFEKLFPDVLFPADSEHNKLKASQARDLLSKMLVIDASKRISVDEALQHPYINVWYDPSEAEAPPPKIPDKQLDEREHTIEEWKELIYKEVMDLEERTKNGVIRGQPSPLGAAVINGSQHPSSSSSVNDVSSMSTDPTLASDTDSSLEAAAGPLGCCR
Sequence of PAK6 (human) (Q9NQU5 whole entry, looked up): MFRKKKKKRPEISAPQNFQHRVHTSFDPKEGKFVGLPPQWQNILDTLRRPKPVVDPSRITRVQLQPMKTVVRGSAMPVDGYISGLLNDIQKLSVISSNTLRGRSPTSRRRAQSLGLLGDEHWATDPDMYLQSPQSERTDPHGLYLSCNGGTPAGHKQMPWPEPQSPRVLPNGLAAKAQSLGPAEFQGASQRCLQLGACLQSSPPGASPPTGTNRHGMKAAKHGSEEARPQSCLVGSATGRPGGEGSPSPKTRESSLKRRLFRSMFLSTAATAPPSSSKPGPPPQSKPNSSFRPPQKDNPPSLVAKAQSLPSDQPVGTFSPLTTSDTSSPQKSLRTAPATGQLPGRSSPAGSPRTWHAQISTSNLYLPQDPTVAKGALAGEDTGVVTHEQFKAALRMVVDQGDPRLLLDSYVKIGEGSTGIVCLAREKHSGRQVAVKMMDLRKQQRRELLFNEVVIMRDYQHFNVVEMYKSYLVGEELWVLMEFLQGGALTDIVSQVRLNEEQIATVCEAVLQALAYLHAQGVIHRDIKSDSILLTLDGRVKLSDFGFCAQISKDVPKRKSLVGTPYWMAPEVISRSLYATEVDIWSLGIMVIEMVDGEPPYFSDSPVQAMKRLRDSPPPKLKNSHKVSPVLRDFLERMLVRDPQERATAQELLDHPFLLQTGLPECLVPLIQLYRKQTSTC
Sequence of RPS6KB1 (human), P23443 [T412E] (P23443 whole entry T412E, looked up): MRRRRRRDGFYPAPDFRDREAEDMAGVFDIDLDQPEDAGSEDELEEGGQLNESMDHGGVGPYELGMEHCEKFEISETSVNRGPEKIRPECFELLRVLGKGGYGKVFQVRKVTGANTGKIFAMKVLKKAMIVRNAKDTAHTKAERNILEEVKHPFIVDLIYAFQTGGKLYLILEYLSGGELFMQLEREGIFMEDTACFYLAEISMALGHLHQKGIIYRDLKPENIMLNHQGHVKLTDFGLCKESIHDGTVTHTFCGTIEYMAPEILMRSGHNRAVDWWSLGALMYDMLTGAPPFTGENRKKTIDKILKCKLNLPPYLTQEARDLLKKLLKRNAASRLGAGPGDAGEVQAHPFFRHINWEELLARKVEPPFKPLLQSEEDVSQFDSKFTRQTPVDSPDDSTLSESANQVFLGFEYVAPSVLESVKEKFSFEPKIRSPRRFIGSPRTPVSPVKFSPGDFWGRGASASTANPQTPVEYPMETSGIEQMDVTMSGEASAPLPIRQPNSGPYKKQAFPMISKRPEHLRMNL
Sequence of RPS6KA1 KD1 KD2 (human) (Q15418 whole entry, looked up): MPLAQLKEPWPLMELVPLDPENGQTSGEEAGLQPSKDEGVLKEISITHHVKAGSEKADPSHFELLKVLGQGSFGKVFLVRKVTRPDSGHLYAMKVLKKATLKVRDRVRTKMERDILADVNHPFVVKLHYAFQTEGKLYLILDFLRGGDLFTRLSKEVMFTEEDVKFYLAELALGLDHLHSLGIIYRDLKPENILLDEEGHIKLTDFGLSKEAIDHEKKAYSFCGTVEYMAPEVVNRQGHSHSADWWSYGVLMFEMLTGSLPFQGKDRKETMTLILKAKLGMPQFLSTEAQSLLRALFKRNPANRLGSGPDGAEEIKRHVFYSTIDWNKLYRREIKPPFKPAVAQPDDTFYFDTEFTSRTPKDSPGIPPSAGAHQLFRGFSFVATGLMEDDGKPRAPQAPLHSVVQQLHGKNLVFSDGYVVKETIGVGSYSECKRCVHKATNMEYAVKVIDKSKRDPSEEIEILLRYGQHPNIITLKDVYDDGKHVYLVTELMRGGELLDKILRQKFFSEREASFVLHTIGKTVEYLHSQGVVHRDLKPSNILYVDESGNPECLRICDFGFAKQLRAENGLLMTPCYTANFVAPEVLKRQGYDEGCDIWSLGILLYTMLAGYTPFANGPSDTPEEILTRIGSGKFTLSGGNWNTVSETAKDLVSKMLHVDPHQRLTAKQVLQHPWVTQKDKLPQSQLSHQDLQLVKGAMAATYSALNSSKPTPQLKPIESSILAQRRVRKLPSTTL
Sequence of MAPK13 (human) (O15264 whole entry, looked up): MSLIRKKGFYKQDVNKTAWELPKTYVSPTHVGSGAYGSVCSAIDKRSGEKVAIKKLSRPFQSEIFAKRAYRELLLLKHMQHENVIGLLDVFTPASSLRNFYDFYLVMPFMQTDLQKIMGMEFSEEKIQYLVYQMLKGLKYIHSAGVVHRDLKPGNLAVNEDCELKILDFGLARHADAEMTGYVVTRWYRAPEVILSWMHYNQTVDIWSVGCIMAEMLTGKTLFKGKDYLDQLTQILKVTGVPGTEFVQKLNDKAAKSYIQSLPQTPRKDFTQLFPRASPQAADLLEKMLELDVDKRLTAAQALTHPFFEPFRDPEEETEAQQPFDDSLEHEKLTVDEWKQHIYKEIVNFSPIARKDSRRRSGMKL

Structure (SMILES): CC(=O)Nc1nc2cnc(-c3c(C)cccc3C)cn2n1
- inhibition (PIM2 (human)): 5%
- inhibition (RPS6KA1 KD1 KD2 (human)): 0%
- inhibition (TBK1 (human)): 15%
- inhibition (MAPKAPK2 (human)): 0%
- inhibition (CDK2 CCNA2 (human)): 0%
- inhibition (MINK1 (human)): 0%
- inhibition [1]: 0%
- inhibition (MARK1 (human)): 0%
- inhibition (MAPK13 (human)): 19%
- inhibition (ABL1 (human)): 18%
- inhibition (MAP3K11 (human)): 0%
- inhibition (PIM3 (human)): 1%
- inhibition (PHKG1 (human)): 0%
- inhibition (BRSK2 (human)): 11%
- inhibition (MKNK2 (human)): 0%
- inhibition (EPHA4 (human)): 10%
- inhibition (NEK2 (human)): 0%
- inhibition (PAK6 (human)): 0%
- inhibition (FLT1 (human)): 9%
- inhibition (CaMK1 (human)): 35%
- inhibition (TEK (human)): 0%
- inhibition (MAPKAPK3 (human)): 74%
- inhibition (ROCK2 (rat)): 0%
- inhibition (CSNK2A1 (human)): 0%
- inhibition (MELK (human)): 0%
- inhibition (PTK6 (human)): 0%
- inhibition (PIM1 (human)): 9%
- inhibition [2]: 43%
- inhibition (DYRK3 (human)): 12%
- inhibition (MST4 (human)): 0%
- inhibition (EPHB4 (human)): 27%
- inhibition (EEF2K (human)): 7%
- inhibition (PRKCA (human)): 0%
- inhibition (NEK6 (human)): 0%
- inhibition (MAPK8 (human)): 0%
- inhibition (MYLK (human)): 0%
- inhibition (STK33 (human)): 0%
- inhibition (AURKA (human)): 10%
- inhibition (STK16 (human)): 0%
- inhibition (ERBB4 (human)): 9%

Structure (SMILES): O=C(c1cccc(-c2cc3c(=O)[nH]cnc3s2)c1)N1CCOCC1
- inhibition (PIM2 (human)): 13%
- inhibition (RPS6KA1 KD1 KD2 (human)): 47%
- inhibition (TBK1 (human)): 17%
- inhibition (MAPKAPK2 (human)): 15%
- inhibition (CDK2 CCNA2 (human)): 10%
- inhibition (MINK1 (human)): 40%
- inhibition [1]: 34%
- inhibition (MARK1 (human)): 31%
- inhibition (MAPK13 (human)): 0%
- inhibition (ABL1 (human)): 15%
- inhibition (MAP3K11 (human)): 23%
- inhibition (PIM3 (human)): 51%
- inhibition (PHKG1 (human)): 9%
- inhibition (BRSK2 (human)): 30%
- inhibition (MKNK2 (human)): 30%
- inhibition (EPHA4 (human)): 0%
- inhibition (NEK2 (human)): 2%
- inhibition (PAK6 (human)): 0%
- inhibition (FLT1 (human)): 74%
- inhibition (CaMK1 (human)): 75%
- inhibition (TEK (human)): 0%
- inhibition (MAPKAPK3 (human)): 61%
- inhibition (ROCK2 (rat)): 39%
- inhibition (CSNK2A1 (human)): 41%
- inhibition (MELK (human)): 25%
- inhibition (PTK6 (human)): 50%
- inhibition (PIM1 (human)): 61%
- inhibition [2]: 47%
- inhibition (DYRK3 (human)): 47%
- inhibition (MST4 (human)): 12%
- inhibition (EPHB4 (human)): 0%
- inhibition (EEF2K (human)): 39%
- inhibition (PRKCA (human)): 21%
- inhibition (NEK6 (human)): 44%
- inhibition (MAPK8 (human)): 8%
- inhibition (MYLK (human)): 8%
- inhibition (STK33 (human)): 0%
- inhibition (AURKA (human)): 21%
- inhibition (STK16 (human)): 4%
- inhibition (ERBB4 (human)): 33%

Structure (SMILES): Nc1cnc2c(-c3c(F)cccc3F)cccn2c1=O
- inhibition (PIM2 (human)): 21%
- inhibition (RPS6KA1 KD1 KD2 (human)): 21%
- inhibition (TBK1 (human)): 23%
- inhibition (MAPKAPK2 (human)): 20%
- inhibition (CDK2 CCNA2 (human)): 88%
- inhibition (MINK1 (human)): 75%
- inhibition [1]: 0%
- inhibition (MARK1 (human)): 49%
- inhibition (MAPK13 (human)): 0%
- inhibition (ABL1 (human)): 40%
- inhibition (MAP3K11 (human)): 63%
- inhibition (PIM3 (human)): 35%
- inhibition (PHKG1 (human)): 38%
- inhibition (BRSK2 (human)): 43%
- inhibition (MKNK2 (human)): 6%
- inhibition (EPHA4 (human)): 25%
- inhibition (NEK2 (human)): 0%
- inhibition (PAK6 (human)): 10%
- inhibition (FLT1 (human)): 72%
- inhibition (CaMK1 (human)): 60%
- inhibition (TEK (human)): 42%
- inhibition (MAPKAPK3 (human)): 54%
- inhibition (ROCK2 (rat)): 76%
- inhibition (CSNK2A1 (human)): 94%
- inhibition (MELK (human)): 43%
- inhibition (PTK6 (human)): 67%
- inhibition (PIM1 (human)): 31%
- inhibition [2]: 68%
- inhibition (DYRK3 (human)): 12%
- inhibition (MST4 (human)): 77%
- inhibition (EPHB4 (human)): 39%
- inhibition (EEF2K (human)): 16%
- inhibition (PRKCA (human)): 36%
- inhibition (NEK6 (human)): 0%
- inhibition (MAPK8 (human)): 41%
- inhibition (MYLK (human)): 25%
- inhibition (STK33 (human)): 4%
- inhibition (AURKA (human)): 89%
- inhibition (STK16 (human)): 3%
- inhibition (ERBB4 (human)): 65%
